From ChEMBL document CHEMBL5212743, “Selectivity Literature for EUbOPEN Chemogenomics Library wave 3” (2023) come the findings set out here.

For assay [1], the target named is 5-hydroxytryptamine receptor 3A (Homo sapiens) (UniProt P46098). The experiment in a line: Selectivity interaction (GPCR panel (PDSP screen)) EUB0000293b HTR3A. The conditions noted are these: at 10 µM.
Assay [2] concerns the target Prostaglandin E2 receptor EP4 subtype (Homo sapiens, UniProt P35408). The assay is described as follows: Selectivity interaction (Eurofins-Panlabs radioligand binding assay ) EUB0000293b PTGER4. As to conditions: at 10 µM.
Assay [3] deals with 5-hydroxytryptamine receptor 2C (Homo sapiens) (UniProt P28335). The assay is described as follows: Selectivity interaction (GPCR panel (PDSP screen)) EUB0000737a HTR2C. The conditions noted are these: at 10 µM.
Chain of 5-hydroxytryptamine receptor 2C (Homo sapiens) (P28335 whole entry): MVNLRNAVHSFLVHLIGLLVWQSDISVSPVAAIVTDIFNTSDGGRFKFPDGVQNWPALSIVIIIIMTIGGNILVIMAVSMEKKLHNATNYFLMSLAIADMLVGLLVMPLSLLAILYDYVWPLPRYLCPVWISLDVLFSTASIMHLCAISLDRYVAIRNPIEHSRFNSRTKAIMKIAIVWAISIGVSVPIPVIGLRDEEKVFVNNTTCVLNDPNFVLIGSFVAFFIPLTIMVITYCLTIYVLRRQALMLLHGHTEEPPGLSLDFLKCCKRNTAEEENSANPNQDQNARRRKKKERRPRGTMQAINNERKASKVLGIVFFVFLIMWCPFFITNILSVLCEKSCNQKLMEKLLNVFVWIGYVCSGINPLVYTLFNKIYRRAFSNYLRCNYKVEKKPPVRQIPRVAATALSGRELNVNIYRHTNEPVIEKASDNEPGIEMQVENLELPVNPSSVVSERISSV
The target of assay [4] is T1, Alpha-1A adrenergic receptor (Homo sapiens) (UniProt P35348).
T1 sequence (whole entry): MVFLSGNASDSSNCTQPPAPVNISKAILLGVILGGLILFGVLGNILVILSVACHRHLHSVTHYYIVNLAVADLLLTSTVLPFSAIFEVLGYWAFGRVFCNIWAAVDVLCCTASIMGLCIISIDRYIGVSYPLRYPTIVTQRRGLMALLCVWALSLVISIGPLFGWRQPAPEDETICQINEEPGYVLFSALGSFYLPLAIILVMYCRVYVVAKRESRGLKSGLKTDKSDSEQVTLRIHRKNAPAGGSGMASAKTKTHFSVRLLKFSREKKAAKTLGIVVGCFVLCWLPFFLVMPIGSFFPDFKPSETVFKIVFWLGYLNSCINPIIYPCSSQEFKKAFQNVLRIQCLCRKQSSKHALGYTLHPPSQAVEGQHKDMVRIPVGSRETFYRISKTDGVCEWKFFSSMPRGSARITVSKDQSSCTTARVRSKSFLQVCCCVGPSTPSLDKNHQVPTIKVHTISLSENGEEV
The assay is described as follows: Selectivity interaction (Lead profiling screen (Eurofins, panel of GPCRs, transporters, nuclear receptors, and other enzymes)) EUB0000320b ADRA1A. As to conditions: at 10 µM.

In assay [5] the target is T2, Cytoplasmic tyrosine-protein kinase BMX (Homo sapiens) (UniProt P51813).
T2 sequence (whole entry): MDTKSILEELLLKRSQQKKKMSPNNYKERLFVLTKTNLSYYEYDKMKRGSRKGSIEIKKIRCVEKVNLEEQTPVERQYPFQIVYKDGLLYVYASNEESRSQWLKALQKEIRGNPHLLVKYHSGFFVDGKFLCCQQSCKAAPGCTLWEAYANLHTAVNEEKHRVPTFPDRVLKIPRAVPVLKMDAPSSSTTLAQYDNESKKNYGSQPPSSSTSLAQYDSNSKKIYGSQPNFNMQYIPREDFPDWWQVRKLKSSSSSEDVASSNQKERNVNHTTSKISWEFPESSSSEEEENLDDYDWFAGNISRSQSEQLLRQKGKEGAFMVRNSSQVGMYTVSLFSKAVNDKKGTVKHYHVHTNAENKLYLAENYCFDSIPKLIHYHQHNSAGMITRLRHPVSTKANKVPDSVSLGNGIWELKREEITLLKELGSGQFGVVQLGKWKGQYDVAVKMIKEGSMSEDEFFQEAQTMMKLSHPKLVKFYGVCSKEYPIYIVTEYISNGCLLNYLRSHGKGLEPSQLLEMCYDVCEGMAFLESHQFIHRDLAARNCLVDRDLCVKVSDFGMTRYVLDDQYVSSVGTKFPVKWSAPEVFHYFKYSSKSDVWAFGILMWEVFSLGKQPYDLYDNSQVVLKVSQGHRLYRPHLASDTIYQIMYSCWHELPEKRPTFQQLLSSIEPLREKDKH
The experiment in a line: Selectivity interaction (KinomeScan (DiscoverX)) EUB0000320b BMX. The conditions noted are these: at 1 µM.

For assay [6], the target named is 5-hydroxytryptamine receptor 2C (Homo sapiens) (UniProt P28335). The assay is described as follows: Selectivity interaction (Lead profiling screen (Eurofins, panel of GPCRs, transporters, nuclear receptors, and other enzymes)) EUB0000320b HTR2C. The conditions noted are these: at 10 µM.
The target of assay [7] is 5-hydroxytryptamine receptor 2B (Homo sapiens, UniProt P41595). The experiment in a line: Selectivity interaction (Lead profiling screen (Eurofins, panel of GPCRs, transporters, nuclear receptors, and other enzymes)) EUB0000320b HTR2B. The conditions noted are these: at 10 µM.
Chain of 5-hydroxytryptamine receptor 2B (P41595 whole entry): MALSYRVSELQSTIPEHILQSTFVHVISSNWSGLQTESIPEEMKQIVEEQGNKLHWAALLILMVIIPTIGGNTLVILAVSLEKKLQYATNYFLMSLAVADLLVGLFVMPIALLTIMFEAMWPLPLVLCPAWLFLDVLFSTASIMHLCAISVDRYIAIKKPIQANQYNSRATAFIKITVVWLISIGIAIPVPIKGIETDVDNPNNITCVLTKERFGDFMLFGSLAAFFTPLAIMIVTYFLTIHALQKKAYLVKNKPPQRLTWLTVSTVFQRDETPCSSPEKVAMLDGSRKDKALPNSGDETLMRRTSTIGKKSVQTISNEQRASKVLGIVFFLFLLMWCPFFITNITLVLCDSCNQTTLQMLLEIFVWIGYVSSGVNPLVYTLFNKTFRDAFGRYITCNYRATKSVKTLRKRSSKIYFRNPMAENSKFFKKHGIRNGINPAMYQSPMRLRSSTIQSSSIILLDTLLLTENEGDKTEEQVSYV
In assay [8] the target is T3, Myosin-IIIb (Homo sapiens) (UniProt Q8WXR4).
T3 sequence (whole entry): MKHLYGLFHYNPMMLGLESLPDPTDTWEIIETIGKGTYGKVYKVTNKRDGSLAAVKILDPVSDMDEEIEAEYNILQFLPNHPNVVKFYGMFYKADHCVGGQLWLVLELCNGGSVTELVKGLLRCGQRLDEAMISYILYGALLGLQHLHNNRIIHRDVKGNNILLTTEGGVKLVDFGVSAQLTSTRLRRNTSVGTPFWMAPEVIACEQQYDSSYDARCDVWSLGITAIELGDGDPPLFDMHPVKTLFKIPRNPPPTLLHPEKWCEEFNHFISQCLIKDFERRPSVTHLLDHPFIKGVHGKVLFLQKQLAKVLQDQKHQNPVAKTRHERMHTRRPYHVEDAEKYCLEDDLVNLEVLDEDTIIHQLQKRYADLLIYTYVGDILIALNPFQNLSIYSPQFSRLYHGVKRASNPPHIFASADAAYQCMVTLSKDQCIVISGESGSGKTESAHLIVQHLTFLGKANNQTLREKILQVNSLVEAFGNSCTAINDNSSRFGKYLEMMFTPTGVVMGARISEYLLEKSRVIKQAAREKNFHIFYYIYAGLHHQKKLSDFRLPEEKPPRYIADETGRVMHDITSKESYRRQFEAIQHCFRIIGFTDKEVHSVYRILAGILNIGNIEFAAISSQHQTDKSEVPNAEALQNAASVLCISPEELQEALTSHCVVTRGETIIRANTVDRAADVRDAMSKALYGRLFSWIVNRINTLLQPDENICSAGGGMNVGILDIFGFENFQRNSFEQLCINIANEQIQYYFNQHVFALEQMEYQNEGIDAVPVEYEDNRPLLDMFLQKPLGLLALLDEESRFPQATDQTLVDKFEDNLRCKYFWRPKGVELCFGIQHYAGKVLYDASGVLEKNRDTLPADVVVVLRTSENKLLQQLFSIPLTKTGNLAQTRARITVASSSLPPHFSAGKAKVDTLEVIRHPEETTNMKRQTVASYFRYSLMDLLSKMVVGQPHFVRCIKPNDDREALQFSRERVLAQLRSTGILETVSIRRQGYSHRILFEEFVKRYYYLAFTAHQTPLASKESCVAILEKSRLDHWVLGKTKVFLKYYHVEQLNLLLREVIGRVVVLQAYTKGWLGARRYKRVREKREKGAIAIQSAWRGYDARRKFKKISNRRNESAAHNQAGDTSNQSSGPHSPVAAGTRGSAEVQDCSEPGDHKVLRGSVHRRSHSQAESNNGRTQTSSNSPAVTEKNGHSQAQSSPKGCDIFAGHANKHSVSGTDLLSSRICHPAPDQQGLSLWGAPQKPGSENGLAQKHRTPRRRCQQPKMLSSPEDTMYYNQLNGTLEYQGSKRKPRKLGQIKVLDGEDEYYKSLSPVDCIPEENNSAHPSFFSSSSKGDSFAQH
The assay is described as follows: Selectivity interaction (KinomeScan (DiscoverX)) EUB0000320b MYO3B. The conditions noted are these: at 1 µM.

Assay [9] has as its target 5-hydroxytryptamine receptor 2A (Homo sapiens, UniProt P28223). The assay is described as follows: Selectivity interaction (Lead profiling screen (Eurofins, panel of GPCRs, transporters, nuclear receptors, and other enzymes)) EUB0000320b HTR2A. As to conditions: at 10 µM.
In assay [10] the target is Serine/threonine-protein kinase 33 (Homo sapiens, UniProt Q9BYT3). The assay is described as follows: Selectivity interaction (KinomeScan (DiscoverX)) EUB0000320b STK33. The conditions noted are these: at 1 µM.
Chain of Serine/threonine-protein kinase 33 (Q9BYT3 whole entry, looked up): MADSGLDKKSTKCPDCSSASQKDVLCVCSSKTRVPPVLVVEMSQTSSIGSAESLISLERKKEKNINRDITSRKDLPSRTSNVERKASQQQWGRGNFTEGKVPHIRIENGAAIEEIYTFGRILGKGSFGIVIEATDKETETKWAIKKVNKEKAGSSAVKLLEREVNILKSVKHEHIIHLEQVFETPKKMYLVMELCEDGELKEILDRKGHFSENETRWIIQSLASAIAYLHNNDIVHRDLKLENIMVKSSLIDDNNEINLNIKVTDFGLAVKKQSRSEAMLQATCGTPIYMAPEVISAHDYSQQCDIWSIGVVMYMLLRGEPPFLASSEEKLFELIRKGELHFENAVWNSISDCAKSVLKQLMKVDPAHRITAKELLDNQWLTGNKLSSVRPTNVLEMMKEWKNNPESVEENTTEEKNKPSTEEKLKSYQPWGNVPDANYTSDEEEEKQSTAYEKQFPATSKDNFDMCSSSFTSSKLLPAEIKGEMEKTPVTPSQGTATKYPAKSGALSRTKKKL
Assay [11] concerns Receptor-type tyrosine-protein kinase FLT3 (Homo sapiens), P36888 [UNDEFINED MUTATION]. The experiment in a line: Selectivity interaction (KinomeScan (DiscoverX)) EUB0000320b FLT3. As to conditions: at 1 µM.
Chain of Receptor-type tyrosine-protein kinase FLT3 (Homo sapiens), P36888 [UNDEFINED MUTATION] (P36888 whole entry, looked up, stated change not applied): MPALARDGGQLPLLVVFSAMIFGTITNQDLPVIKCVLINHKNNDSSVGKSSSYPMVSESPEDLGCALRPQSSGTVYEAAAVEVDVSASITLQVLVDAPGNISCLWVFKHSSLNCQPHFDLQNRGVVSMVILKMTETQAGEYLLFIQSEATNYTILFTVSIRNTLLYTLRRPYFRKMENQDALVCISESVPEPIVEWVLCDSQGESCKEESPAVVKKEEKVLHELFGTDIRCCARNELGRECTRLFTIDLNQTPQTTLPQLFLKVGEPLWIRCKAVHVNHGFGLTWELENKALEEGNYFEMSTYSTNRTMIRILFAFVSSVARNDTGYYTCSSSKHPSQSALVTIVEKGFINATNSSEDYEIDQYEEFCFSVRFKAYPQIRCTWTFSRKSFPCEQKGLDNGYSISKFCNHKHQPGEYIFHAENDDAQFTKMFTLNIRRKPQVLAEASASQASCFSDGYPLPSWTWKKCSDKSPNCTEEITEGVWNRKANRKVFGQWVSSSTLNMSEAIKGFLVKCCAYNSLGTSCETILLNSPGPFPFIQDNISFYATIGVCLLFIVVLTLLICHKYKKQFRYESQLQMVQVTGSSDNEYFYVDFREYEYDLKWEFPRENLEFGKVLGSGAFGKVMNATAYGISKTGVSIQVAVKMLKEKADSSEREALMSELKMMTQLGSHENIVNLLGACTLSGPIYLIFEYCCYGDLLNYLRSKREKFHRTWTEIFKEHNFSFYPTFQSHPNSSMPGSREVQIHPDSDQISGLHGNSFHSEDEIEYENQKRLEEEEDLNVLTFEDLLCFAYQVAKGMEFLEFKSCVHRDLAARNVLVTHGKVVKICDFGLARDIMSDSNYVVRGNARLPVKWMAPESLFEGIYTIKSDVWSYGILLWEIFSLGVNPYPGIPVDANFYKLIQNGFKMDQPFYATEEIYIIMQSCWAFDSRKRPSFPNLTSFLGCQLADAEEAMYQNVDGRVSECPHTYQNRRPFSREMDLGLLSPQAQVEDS
In assay [12] the target is Kappa-type opioid receptor (Homo sapiens, UniProt P41145). The experiment in a line: Selectivity interaction (Lead profiling screen (Eurofins, panel of GPCRs, transporters, nuclear receptors, and other enzymes)) EUB0000320b OPRK1. The conditions noted are these: at 10 µM.
Chain of Kappa-type opioid receptor (P41145 whole entry): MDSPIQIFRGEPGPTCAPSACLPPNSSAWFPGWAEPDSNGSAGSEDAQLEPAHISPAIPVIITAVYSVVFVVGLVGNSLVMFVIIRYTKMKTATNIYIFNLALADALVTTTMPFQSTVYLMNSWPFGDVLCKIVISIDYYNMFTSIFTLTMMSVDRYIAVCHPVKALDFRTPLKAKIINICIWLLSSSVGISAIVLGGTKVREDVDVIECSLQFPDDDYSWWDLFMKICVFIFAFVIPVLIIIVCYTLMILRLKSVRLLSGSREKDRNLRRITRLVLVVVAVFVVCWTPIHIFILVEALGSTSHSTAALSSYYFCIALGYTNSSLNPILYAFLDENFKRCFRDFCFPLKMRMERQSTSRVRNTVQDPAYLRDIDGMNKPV
The target in assay [13] is Casein kinase II subunit alpha' (Homo sapiens) (UniProt P19784). The experiment in a line: Selectivity interaction (Kinase panel (Eurofins)) EUB0000320b CSNK2A2. The conditions noted are these: at 1 µM.
The target in assay [14] is P2Y purinoceptor 2 (Homo sapiens) (UniProt P41231). The experiment in a line: Selectivity interaction (GPCR panel (Eurofins-Cerep)) EUB0000333a P2RY2. As to conditions: at 10 µM.
The target of assay [15] is eIF-2-alpha kinase GCN2 (Homo sapiens) (UniProt Q9P2K8). The experiment in a line: Selectivity interaction (KinomeScan (DiscoverX)) EUB0000333a EIF2AK4. The conditions noted are these: at 1 µM.
In assay [16] the target is T4, Muscarinic acetylcholine receptor M2 (Homo sapiens) (UniProt P08172).
T4 sequence (whole entry): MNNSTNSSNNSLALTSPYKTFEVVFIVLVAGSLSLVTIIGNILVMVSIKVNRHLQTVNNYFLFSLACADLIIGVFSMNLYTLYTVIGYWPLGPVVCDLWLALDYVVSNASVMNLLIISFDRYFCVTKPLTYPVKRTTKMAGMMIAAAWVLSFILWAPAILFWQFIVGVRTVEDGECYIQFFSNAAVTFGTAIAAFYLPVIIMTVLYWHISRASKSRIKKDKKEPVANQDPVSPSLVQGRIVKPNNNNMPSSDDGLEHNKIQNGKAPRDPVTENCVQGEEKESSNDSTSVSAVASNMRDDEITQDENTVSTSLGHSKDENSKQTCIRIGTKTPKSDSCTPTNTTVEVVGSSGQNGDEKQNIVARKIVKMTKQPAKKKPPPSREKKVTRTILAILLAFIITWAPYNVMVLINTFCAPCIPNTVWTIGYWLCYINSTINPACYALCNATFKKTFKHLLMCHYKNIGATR
The assay is described as follows: Selectivity interaction (GPCR panel (PDSP screen)) EUB0000333a CHRM2. As to conditions: at 10 µM.

Assay [17] has as its target T5, Sigma intracellular receptor 2 (Homo sapiens, UniProt Q5BJF2). The experiment in a line: Selectivity interaction (GPCR panel (PDSP screen)) EUB0000333a TMEM97. As to conditions: at 10 µM.
Assay [18] has as its target Serine/threonine-protein kinase ICK (Homo sapiens) (UniProt Q9UPZ9). The assay is described as follows: Selectivity interaction (KinomeScan (DiscoverX)) EUB0000333a ICK. As to conditions: at 1 µM.
Assay [19] deals with T5, Sigma intracellular receptor 2. The experiment in a line: Selectivity interaction (GPCR panel (PDSP screen)) EUB0000251b TMEM97. As to conditions: at 10 µM.
Assay [20] deals with Phosphatidylinositol 4,5-bisphosphate 3-kinase catalytic subunit alpha isoform (Homo sapiens), P42336 [E542K]. The assay is described as follows: (§1) Selectivity interaction (KinomeScan (DiscoverX)) EUB0000251b PIK3CA. The conditions noted are these: at 1 µM.
For assay [21], the system named is Phosphatidylinositol 4,5-bisphosphate 3-kinase catalytic subunit alpha isoform (Homo sapiens), P42336 [Q546K]. Described as §1. The conditions noted are these: at 1 µM.
Another assay deals with Histamine H1 receptor (Homo sapiens, UniProt P35367). The assay is described as follows: Selectivity interaction (GPCR panel (PDSP screen)) EUB0000251b HRH1. As to conditions: at 10 µM.
The target of assay [22] is Serine/threonine-protein kinase ULK3 (Homo sapiens) (UniProt Q6PHR2). The assay is described as follows: Selectivity interaction (KinomeScan (DiscoverX)) EUB0000708a ULK3. As to conditions: at 1 µM.
Chain of Serine/threonine-protein kinase ULK3 (Homo sapiens) (Q6PHR2 whole entry): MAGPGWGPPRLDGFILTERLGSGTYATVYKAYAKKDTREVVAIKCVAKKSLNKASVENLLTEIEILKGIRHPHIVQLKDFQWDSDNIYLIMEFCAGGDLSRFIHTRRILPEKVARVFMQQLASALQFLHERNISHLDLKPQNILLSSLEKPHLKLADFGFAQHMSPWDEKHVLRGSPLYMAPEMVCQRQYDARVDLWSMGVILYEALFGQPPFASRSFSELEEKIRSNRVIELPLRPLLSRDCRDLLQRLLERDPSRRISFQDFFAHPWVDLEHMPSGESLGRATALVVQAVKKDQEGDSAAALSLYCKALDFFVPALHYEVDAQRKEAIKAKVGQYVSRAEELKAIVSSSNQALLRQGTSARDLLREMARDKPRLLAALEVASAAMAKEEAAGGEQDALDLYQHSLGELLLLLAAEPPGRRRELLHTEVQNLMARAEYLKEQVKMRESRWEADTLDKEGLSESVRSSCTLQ
For assay [23], the target named is Serine/threonine-protein kinase SBK1 (Homo sapiens) (UniProt Q52WX2). The experiment in a line: Selectivity interaction (KinomeScan (DiscoverX)) EUB0000708a SBK1. The conditions noted are these: at 1 µM.
Chain of Serine/threonine-protein kinase SBK1 (Homo sapiens) (Q52WX2 whole entry): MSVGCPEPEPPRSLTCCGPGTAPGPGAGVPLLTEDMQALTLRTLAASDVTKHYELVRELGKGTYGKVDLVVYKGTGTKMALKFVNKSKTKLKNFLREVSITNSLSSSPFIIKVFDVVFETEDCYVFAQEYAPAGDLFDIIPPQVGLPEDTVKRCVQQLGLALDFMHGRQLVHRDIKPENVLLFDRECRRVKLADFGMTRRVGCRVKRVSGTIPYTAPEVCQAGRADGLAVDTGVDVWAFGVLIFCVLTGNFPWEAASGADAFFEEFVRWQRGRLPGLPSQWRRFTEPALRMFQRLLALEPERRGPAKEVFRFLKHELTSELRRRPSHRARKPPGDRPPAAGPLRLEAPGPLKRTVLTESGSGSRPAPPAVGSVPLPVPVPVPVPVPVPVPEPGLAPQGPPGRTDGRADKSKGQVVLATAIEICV

SMILES strings stand for the structures.

T5 sequence (Q5BJF2 whole entry): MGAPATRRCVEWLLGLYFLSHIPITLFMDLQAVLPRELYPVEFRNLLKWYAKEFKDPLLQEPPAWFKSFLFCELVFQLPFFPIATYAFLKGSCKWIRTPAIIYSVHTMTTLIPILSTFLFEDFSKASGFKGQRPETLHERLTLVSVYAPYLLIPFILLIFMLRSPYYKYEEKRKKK
Chain of Prostaglandin E2 receptor EP4 subtype (P35408 whole entry): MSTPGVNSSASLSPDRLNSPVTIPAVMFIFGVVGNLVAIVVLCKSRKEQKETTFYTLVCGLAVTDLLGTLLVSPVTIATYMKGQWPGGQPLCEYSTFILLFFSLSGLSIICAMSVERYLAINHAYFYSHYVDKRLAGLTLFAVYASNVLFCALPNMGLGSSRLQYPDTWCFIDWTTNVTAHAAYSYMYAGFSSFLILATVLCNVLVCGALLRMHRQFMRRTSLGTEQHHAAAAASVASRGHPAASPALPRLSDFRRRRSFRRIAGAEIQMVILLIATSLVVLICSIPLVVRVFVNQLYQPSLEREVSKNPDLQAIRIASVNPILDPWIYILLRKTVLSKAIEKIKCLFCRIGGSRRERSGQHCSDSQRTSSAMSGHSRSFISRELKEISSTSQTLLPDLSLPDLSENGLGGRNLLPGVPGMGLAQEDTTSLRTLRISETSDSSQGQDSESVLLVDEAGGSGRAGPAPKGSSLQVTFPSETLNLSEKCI
Chain of 5-hydroxytryptamine receptor 2A (P28223 whole entry): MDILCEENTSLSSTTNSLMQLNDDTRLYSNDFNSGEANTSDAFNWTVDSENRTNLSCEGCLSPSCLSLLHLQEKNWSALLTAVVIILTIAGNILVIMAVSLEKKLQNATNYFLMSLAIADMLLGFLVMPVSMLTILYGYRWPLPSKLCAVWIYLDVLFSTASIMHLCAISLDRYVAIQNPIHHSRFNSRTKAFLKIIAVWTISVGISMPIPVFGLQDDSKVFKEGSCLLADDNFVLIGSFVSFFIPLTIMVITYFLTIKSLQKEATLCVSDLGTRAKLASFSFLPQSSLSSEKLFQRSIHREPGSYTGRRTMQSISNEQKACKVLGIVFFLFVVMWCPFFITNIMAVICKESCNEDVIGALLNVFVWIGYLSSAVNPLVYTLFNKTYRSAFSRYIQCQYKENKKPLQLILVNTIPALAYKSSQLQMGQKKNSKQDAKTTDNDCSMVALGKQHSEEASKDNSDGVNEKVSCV

`CC1=C(C#N)C(c2ccc3[nH]nc(C)c3c2)C(C#N)=C(C)N1` had a % of control in assay [1] of 33%. Besides, the % of inhibition in [2] was 19%.
For the compound `CC(=O)C1=C(C)N(c2cccc(C(F)(F)F)c2)C(=O)N[C@H]1c1ccc(C#N)nc1`, the % of inhibition in [3] was 29%.
Regarding `CNCc1ccccc1-c1csc([C@@H](C)Nc2nc(C)nc3cc(OC)c(OC)cc23)c1`, the % of inhibition was 106% in assay [4]; 104% in assay [6]; 100% in assay [7]; 110% in assay [9]; 105% in assay [12]. For the same compound, the % of control in assay [5] came to 49%; in assay [8] it was 47%; in assay [10], 45%; in [11], 48%; in assay [13], 67%.
As a reminder, the inhibition is the percentage by which the read-out fell short of the control. High values mean a response far below the control, low ones a response near the control. On to `Cc1noc([C@H]2C[C@@H](c3ccc(C(F)(F)F)cc3)CN(C(=O)N3CCS(=O)(=O)C3)C2)n1`, for which the values for the inhibition in assay [14], in assay [16] and in [17] were 29%, 39% and 42%, respectively. In addition, the results for the % of control in [15] and in assay [18] were 28% and 62%, respectively.
Regarding `Cc1c(NC(=O)c2cc(C(N)=O)nc3cc(F)ccc23)c(C(F)(F)F)nn1Cc1ccc(C(C)(C)C)cc1`, the % of inhibition in [19] was found to be 41%; at Histamine H1 receptor, 46%. For the same compound, the % of control turned out to be 43% in assay [20] and 32% in [21].
Take `Cc1nc(C2CCN(C(=O)c3ccc(OC(F)(F)F)cc3N)CC2)c2ncc(N3CCN(C)CC3)cc2n1`: the values for the % of control in assay [22] and in assay [23] were 46% and 40%, respectively.
